Some test systems named below: NCI-H226 lung; CAKI-1 renal; A549 NSCLC; SK-MEL-2 melanoma; OVCAR-8 ovarian; KM12 colon; U251 CNS; HCT-15 colon; HT29 colon; OVCAR-5 ovarian; HOP-62 NSCLC; COLO 205 colon; SW-620 colon; SF-539 CNS; HOP-92 NSCLC.
Holding throughout (assay): growth of human tumour cells (NCI), 48 h

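The compound was tested at five concentrations on cells cultured in 96-well plates, with a 48-hour exposure period. At the GI50, growth is halved. TGI: total growth inhibition.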 Bounds are passed on as bounds.

Results on eight molecules are retold here after PubChem BioAssay (NCI).

Consider `COc1cccc(/C=N/[N+](C)(C)C)c1O`, for which the TGI with NCI-H226 lung, in the experiment on CAKI-1 renal, with A549 NSCLC, in the experiment with SK-MEL-2 melanoma, with OVCAR-8 ovarian and with KM12 colon was more than 10 µM in each case. Further, the TGI in the experiment on U251 CNS, in the experiment with HCT-15 colon, in the experiment on HT29 colon, in the experiment on OVCAR-5 ovarian, in the experiment with HOP-62 NSCLC and in the experiment on COLO 205 colon was more than 10 µM in each case. Moreover, the TGI with SW-620 colon and in the experiment on SF-539 CNS was more than 10 µM throughout.
As for `O=c1c2cc([N+](=O)[O-])ccc2[nH]n1Cc1ccccc1Cl`, the TGI with NCI-H226 lung is more than 100 µM; in the experiment on CAKI-1 renal, more than 100 µM; in the experiment on A549 NSCLC it was more than 100 µM; with HOP-92 NSCLC, 93.9 µM; with OVCAR-8 ovarian it was more than 100 µM; in the experiment with KM12 colon, more than 100 µM. For the same molecule, the TGI in the experiment with U251 CNS, with HCT-15 colon, with HT29 colon, in the experiment on OVCAR-5 ovarian, in the experiment on HOP-62 NSCLC and in the experiment on COLO 205 colon was more than 100 µM in each case. Moreover, the TGI with SW-620 colon and with SF-539 CNS was more than 100 µM in each case.
In the case of `COc1ccc(C(=O)c2[nH]c(Nc3cc(C)ccn3)c(C(=S)Nc3ccccc3)c2N)cc1`, the TGI was 47.3 µM in the experiment on NCI-H226 lung; more than 100 µM with CAKI-1 renal; more than 100 µM in the experiment with A549 NSCLC; 24.2 µM in the experiment with SK-MEL-2 melanoma; 52.4 µM in the experiment on OVCAR-8 ovarian; 39.2 µM in the experiment on KM12 colon. For the same molecule, the TGI in the experiment with U251 CNS was 36.4 µM; in the experiment on HCT-15 colon, 55.9 µM; in the experiment on HT29 colon it was 39.4 µM; with OVCAR-5 ovarian it was 74.1 µM; with HOP-62 NSCLC it was 72.2 µM; in the experiment with COLO 205 colon it was 41.5 µM. Also, the values for the TGI in the experiment with SW-620 colon and in the experiment on SF-539 CNS were 71 µM and 35.8 µM, respectively.
Take `COc1ccc(C)cc1NC(=S)N/N=C/c1ccco1`: the TGI is more than 100 µM in the experiment on NCI-H226 lung; more than 100 µM in the experiment with CAKI-1 renal; more than 100 µM with A549 NSCLC; 39.9 µM in the experiment with SK-MEL-2 melanoma; more than 100 µM with HOP-92 NSCLC; more than 100 µM in the experiment with OVCAR-8 ovarian. Besides, the TGI was more than 100 µM in the experiment with KM12 colon; more than 100 µM with HCT-15 colon; more than 100 µM in the experiment with HT29 colon; more than 100 µM with OVCAR-5 ovarian; more than 100 µM with HOP-62 NSCLC; 65.5 µM in the experiment on COLO 205 colon. Moreover, the TGI with SW-620 colon and in the experiment on SF-539 CNS was more than 100 µM in each case.
`Nc1nc2cc(COc3ccc(C(=O)O)cc3)ccc2nc1-c1ccccc1`: the TGI in the experiment on NCI-H226 lung, in the experiment on CAKI-1 renal, with A549 NSCLC, with SK-MEL-2 melanoma, in the experiment with HOP-92 NSCLC and in the experiment on KM12 colon was more than 10 µM throughout. Also, the TGI in the experiment on U251 CNS, with HCT-15 colon, in the experiment on HT29 colon, in the experiment on OVCAR-5 ovarian, in the experiment with HOP-62 NSCLC and with COLO 205 colon was more than 10 µM each time. In addition, the TGI in the experiment on SW-620 colon and in the experiment with SF-539 CNS was more than 10 µM in each case.
As to `O=C1Nc2ccccc2C1(O)Cc1ccccn1` (stereo not given), the TGI with NCI-H226 lung, in the experiment with CAKI-1 renal, with A549 NSCLC, with SK-MEL-2 melanoma, in the experiment with HOP-92 NSCLC and with OVCAR-8 ovarian was more than 100 µM throughout. The TGI in the experiment with KM12 colon, in the experiment on U251 CNS, in the experiment with HCT-15 colon, in the experiment with HT29 colon, in the experiment on OVCAR-5 ovarian and in the experiment on HOP-62 NSCLC was more than 100 µM in each case. The TGI in the experiment with COLO 205 colon and with SW-620 colon was more than 100 µM throughout.
Take `COc1cnc2oc3ccc(O)cc3c2c1-c1ccccc1`: the TGI in the experiment with CAKI-1 renal, in the experiment with A549 NSCLC, with SK-MEL-2 melanoma, in the experiment on HOP-92 NSCLC, in the experiment with OVCAR-8 ovarian and with KM12 colon was more than 100 µM throughout. The TGI in the experiment on U251 CNS was more than 100 µM; in the experiment on HCT-15 colon, more than 100 µM; with HT29 colon, more than 100 µM; in the experiment on OVCAR-5 ovarian it was 68.2 µM; with HOP-62 NSCLC, more than 100 µM; with COLO 205 colon, more than 100 µM. In addition, the TGI in the experiment on SW-620 colon and with SF-539 CNS was more than 100 µM each time.
Turning to `O=C(N/N=C/c1cc(Cl)cc(Cl)c1[O-])c1ccccc1O.O=C(N/N=C/c1cc(Cl)cc(Cl)c1[O-])c1ccccc1O.[Mn+2]`, the TGI in the experiment with NCI-H226 lung was found to be 6.59 µM; in the experiment on CAKI-1 renal, 4.33 µM; in the experiment with A549 NSCLC it was 11.6 µM; with SK-MEL-2 melanoma, 11.3 µM; in the experiment with HOP-92 NSCLC it was 3.33 µM; in the experiment on OVCAR-8 ovarian it was 2.3 µM. The TGI in the experiment with KM12 colon stood at 15.9 µM; with U251 CNS, 5.52 µM; in the experiment with HCT-15 colon, 14.1 µM; with OVCAR-5 ovarian, 17.4 µM; with SW-620 colon, 17.7 µM; in the experiment on SF-539 CNS, 4.51 µM. Moreover, the GI50 is 0.377 µM in the experiment on A549 NSCLC; 0.285 µM with SK-MEL-2 melanoma; 0.429 µM in the experiment on HOP-92 NSCLC; 0.448 µM with KM12 colon; 0.459 µM with SF-539 CNS.
